≈ marks a conversion by molar mass, not a printed value. Where two headings read alike, the source gives them in different places.
Tests used:
[1] = test system: S. aureus PTCC 100 (LRSA); test: In-vitro antibacterial activity, broth microdilution MIC against linezolid resistant strain; format: cell-based; conditions: Staphylococcus aureus
Experimental: (§1) The in-vitro antibacterial activity of the compounds of the present invention (as described in Table 2) was determined by a broth microdilution following the guidelines prescribed by the Clinical and Laboratory Standards Institute (CLSI). This method is described in the CLSI Document M7-A7, Vol. 26, No. 2, “Methods for Dilution Antimicrobial Susceptibility Test for Bacteria that Grow Aerobically; Approved Standard-Seventh Edition”, which is incorporated herein by reference. Minimum Inhibitory Concentration (MIC) is defined as the minimum concentration of test compound which inhibits the growth of bacteria as visible or seen by the naked eye. This test can also be carried out by agar dilution method.
(§2) The compounds of the present invention were tested against a panel of standard microorganisms obtained from ATCC (American type culture collection), and a Linezolid resistant strain (LRSA) i.e. PTCC 100 (Panacea type culture collection). PTCC 100 is a repository that has been created by Panacea Biotec Ltd. at Mohali, India for storage and maintenance of clinical, bacterial and other isolates developed in-house which are used for testing the test compounds. Linezolid was used as comparator in all the tests.
(§3) In the broth microdilution method, the compound was dissolved in dimethylsulfoxide and two fold serial dilutions were carried out in 96 well microtitre plates. The inoculum was prepared by adjusting the turbidity of actively growing broth culture and added to the wells to obtain a final bacterial count of ˜2-5×10^4 CFU/well. The microtitre plates were incubated at 35±2° C. for 16-20 h and then read visually.
PTCC 100 was developed by a procedure similar to the one cited in Antimicrobial Agents and Chemotherapy, 2008, 52, 1940. Female Swiss albino mice (18-22gm) bred in-house were inoculated with S. aureus ATCC 29213 strain and dosed orally with Linezolid at 5 mg/kg/p.o, next day mice were sacrificed after 20-22 h and intraperitoneal swab was taken and streaked onto Mueller Hinton Agar plates containing 4 and 8 μg/mL of Linezolid. Colonies obtained on 4 μg/mL and 8 μg/mL were selected from plates and further passaged into mice (SAM), dosed orally with Linezolid at 7.5 mg/kg/p.o. Mice were sacrificed and intraperitoneal swabs were streaked onto plates containing higher linezolid concentration i.e 16 and 32 μg/mL and the process was repeated by incrementally increasing the concentration of Linezolid upto 10 mg/kg/p.o in mice, to finally obtain S. aureus strains resistant to Linezolid at 64 μg/mL.

E. faecalis ATCC 29212 = test: In-vitro antibacterial activity, broth microdilution MIC (CLSI); format: cell-based; conditions: Enterococcus faecalis, ATCC29212, 35±2° C., 16-20 h, read visually
Experimental: as §1, §2, §3

[2] = test system: S. aureus ATCC 29213 (MSSA); test: as above; format: cell-based; conditions: Staphylococcus aureus, 35±2° C., 16-20 h, read visually
Experimental: as §1, §2, §3

[3] = test system: E. faecium ATCC 700221 (VRE); test: as above; format: cell-based; conditions: Enterococcus faecium, 35±2° C., 16-20 h, read visually, read-out: MIC E. faecium ATTC 700221 (VRE)
Experimental: as §1, §2, §3

[4] = test system: S. aureus ATCC 33591 (MRSA); test: as above; format: cell-based; conditions: Staphylococcus aureus, 35±2° C., 16-20 h, read visually
Experimental: as §1, §2, §3

S. aureus ATCC 29213 = test: In-vivo efficacy: systemic model of infection in mice; parameters: species or system Staphylococcus aureus; conditions: female Swiss albino mice, i.p. infection, oral dosing at 1 h and 5 h post infection, 50% survival at 7 days
Experimental: Female Swiss albino mice bred in-house were selected in weight range of 19-23 gm (n=6/group). S. aureus ATCC 29213 was grown overnight for 18-20 h, on Columbia Blood Agar (Difco; BD). Next day bacterial inoculum was prepared with optical density (O.D) corresponding to cell density of ˜2˜10^9 CFU/ml and mixed with 10% of gastric mucin (Difco; BD) in ratio of 1:1 to obtain final mucin concentration of 5% w/v. 0.5 mL of bacterial inoculum was injected intraperitoneally (i.p) into all the mice. Compounds obtained in the present invention, hereinafter referred as Test compounds were formulated in 0.25% Carboxymethylcellulose (C.M.C) and Tween 80, at different dose levels and then administered orally at 1 h and 5 h post infection. Linezolid was used as standard control. Saline was administered to the infection control group which received neither the test compound nor the standard drug. […] Numbers of survivors in each group were noted and ED50 of test compound on the basis of 50% survival was calculated through regression analysis.

[5] = PTCC100, read-out: MIC S. aureus PTCC 100 (LRSA)

SMILES | MIC [1, 5] [µg/mL] | MIC (E. faecalis ATCC 29212) [µg/mL] | MIC [2] [µg/mL] | MIC [3] [µg/mL] | MIC [4] [µg/mL] | ED50 values S. aureus ATCC 29213 (S. aureus ATCC 29213) [mg/kg/p.o.] | MIC ([1]; PTCC100, read-out: MIC of isolated colonies (PTCC 100)) [µg/mL]
COC(=O)NC[C@H]1CN(c2cc(F)c(N3CCN(C(=O)CNC(=O)c4cn5ccncc5n4)CC3)c(F)c2)C(=O)O1 [Compound 1] | 0.25 (≈ 0.437 µM) | 0.5 (≈ 0.873 µM) | 0.5 (≈ 0.873 µM) | 0.25 (≈ 0.437 µM) | 0.25 (≈ 0.437 µM) | – | –
CC(=O)NC[C@H]1CN(c2cc(F)c(N3CCN(C(=O)[C@H](CC(C)C)NC(=O)c4cn5ccncc5n4)CC3)c(F)c2)C(=O)O1 [Compound 2] | 4 (≈ 6.53 µM) | 2 (≈ 3.26 µM) | 2 (≈ 3.26 µM) | 1 (≈ 1.63 µM) | 2 (≈ 3.26 µM) | – | –
COC(=O)NC[C@H]1CN(c2ccc(N3CCN(C(=O)CNC(=O)c4cn5ccncc5n4)CC3)c(F)c2)C(=O)O1 [Compound 3] | 2 (≈ 3.61 µM) | 0.5 (≈ 0.902 µM) | 0.5 (≈ 0.902 µM) | 0.25 (≈ 0.451 µM) | 0.5 (≈ 0.902 µM) | – | –
COC(=O)NC[C@H]1CN(c2cc(F)c(N3CCN(C(=O)[C@H](CO)NC(=O)c4cn5ccncc5n4)CC3)c(F)c2)C(=O)O1 [Compound 4] | 1 (≈ 1.66 µM) | 0.5 (≈ 0.83 µM) | 0.5 (≈ 0.83 µM) | 0.5 (≈ 0.83 µM) | 0.5 (≈ 0.83 µM) | – | –
COC(=O)NC[C@H]1CN(c2cc(F)c(N3CCN(C(=O)[C@H](C)NC(=O)c4cn5ccncc5n4)CC3)c(F)c2)C(=O)O1 [Compound 5] | 1 (≈ 1.7 µM) | 0.5 (≈ 0.852 µM) | 0.5 (≈ 0.852 µM) | 0.5 (≈ 0.852 µM) | 0.5 (≈ 0.852 µM) | – | –
CC(=O)NC[C@H]1CN(c2cc(F)c(N3CCN(C(=O)CNC(=O)c4cn5ccncc5n4)CC3)c(F)c2)C(=O)O1 [Compound 6] | 1 (≈ 1.8 µM) | 0.5 (≈ 0.898 µM) | 0.5 (≈ 0.898 µM) | 0.5 (≈ 0.898 µM) | 0.5 (≈ 0.898 µM) | – | –
CC(=O)NC[C@H]1CN(c2cc(F)c(N3CCN(C(=O)C4(NC(=O)c5cn6ccncc6n5)CCCC4)CC3)c(F)c2)C(=O)O1 [Compound 7] | – | 8 (≈ 13.1 µM) | 32 (≈ 52.4 µM) | 8 (≈ 13.1 µM) | 16 (≈ 26.2 µM) | – | –
COC(=O)NC[C@H]1CN(c2ccc(N3CCCN(C(=O)CNC(=O)c4cn5ccncc5n4)CC3)c(F)c2)C(=O)O1 [Compound 25] | – | 1 (≈ 1.76 µM) | 2 (≈ 3.52 µM) | 1 (≈ 1.76 µM) | 2 (≈ 3.52 µM) | – | –
COC(=O)NC[C@H]1CN(c2cc(F)c(N3CCN(C(=O)CNC(=O)c4ccc(Cl)nc4)CC3)c(F)c2)C(=O)O1 [Compound 130] | 8 (≈ 14.1 µM) | 0.25 (≈ 0.441 µM) | 0.25 (≈ 0.441 µM) | 0.125 (≈ 0.22 µM) | 0.25 (≈ 0.441 µM) | – | –
C[C@H](NC(=O)c1cn2cccnc2n1)C(=O)N1CCN(c2c(F)cc(N3C[C@H](CNC(=O)c4ccno4)OC3=O)cc2F)CC1 [Compound 190] | – | 0.25 (≈ 0.401 µM) | 0.25 (≈ 0.401 µM) | 0.5 (≈ 0.802 µM) | 0.25 (≈ 0.401 µM) | – | –
COC(=O)NC[C@H]1CN(c2cc(F)c(N3CCN(C(=O)[C@H](C)NC(=O)c4ccc(F)nc4)CC3)c(F)c2)C(=O)O1 [Compound 196] | – | 0.5 (≈ 0.886 µM) | 0.5 (≈ 0.886 µM) | 0.25 (≈ 0.443 µM) | 0.5 (≈ 0.886 µM) | – | –
COC(=O)NC[C@H]1CN(c2cc(F)c(N3CCN(C(=O)[C@H](C)NC(=O)c4cccnc4F)CC3)c(F)c2)C(=O)O1 [Compound 197] | – | 0.5 (≈ 0.886 µM) | 1 (≈ 1.77 µM) | 0.25 (≈ 0.443 µM) | 0.5 (≈ 0.886 µM) | – | –
CC(=O)NC[C@H]1CN(c2ccc(N3CCOCC3)c(F)c2)C(=O)O1 [Linezolid, reference compound] | 32 (≈ 94.9 µM) | 2 (≈ 5.93 µM) | 2 (≈ 5.93 µM) | 2 (≈ 5.93 µM) | 1 (≈ 2.96 µM) | 6.0 | 64

Source: patent US8841306B2, “Antimicrobials” (Panacea Biotec Ltd., priority 2008, dated 2014)
